Data on one compound can be found in PMC8703823, “The Role of TRPA1 Channels in the Central Processing of Odours Contributing to the Behavioural Responses of Mice” (Pharmaceuticals, 2021).

Usually EC50 stands for the concentration giving half of the maximal effect.

Structures are written as SMILES.

The target in one assay is T1, hTRPA1 (Homo sapiens, UniProt O75762).
T1 construct: gene TRPA1; stably overexpressed in CHO cells
The assay is described as follows: Fluo-4 AM calcium influx, flow cytometry, CHO cells. In kind it is cell-based. (In flow cytometry, cells or beads pass a laser one at a time.)

The next assay has as its target T2, mTRPA1 (Mus musculus, UniProt Q8BLA8).
T2 construct: gene Trpa1; stably overexpressed in CHO cells
The description is as above. In kind it is cell-based.

T1 sequence (O75762 whole entry): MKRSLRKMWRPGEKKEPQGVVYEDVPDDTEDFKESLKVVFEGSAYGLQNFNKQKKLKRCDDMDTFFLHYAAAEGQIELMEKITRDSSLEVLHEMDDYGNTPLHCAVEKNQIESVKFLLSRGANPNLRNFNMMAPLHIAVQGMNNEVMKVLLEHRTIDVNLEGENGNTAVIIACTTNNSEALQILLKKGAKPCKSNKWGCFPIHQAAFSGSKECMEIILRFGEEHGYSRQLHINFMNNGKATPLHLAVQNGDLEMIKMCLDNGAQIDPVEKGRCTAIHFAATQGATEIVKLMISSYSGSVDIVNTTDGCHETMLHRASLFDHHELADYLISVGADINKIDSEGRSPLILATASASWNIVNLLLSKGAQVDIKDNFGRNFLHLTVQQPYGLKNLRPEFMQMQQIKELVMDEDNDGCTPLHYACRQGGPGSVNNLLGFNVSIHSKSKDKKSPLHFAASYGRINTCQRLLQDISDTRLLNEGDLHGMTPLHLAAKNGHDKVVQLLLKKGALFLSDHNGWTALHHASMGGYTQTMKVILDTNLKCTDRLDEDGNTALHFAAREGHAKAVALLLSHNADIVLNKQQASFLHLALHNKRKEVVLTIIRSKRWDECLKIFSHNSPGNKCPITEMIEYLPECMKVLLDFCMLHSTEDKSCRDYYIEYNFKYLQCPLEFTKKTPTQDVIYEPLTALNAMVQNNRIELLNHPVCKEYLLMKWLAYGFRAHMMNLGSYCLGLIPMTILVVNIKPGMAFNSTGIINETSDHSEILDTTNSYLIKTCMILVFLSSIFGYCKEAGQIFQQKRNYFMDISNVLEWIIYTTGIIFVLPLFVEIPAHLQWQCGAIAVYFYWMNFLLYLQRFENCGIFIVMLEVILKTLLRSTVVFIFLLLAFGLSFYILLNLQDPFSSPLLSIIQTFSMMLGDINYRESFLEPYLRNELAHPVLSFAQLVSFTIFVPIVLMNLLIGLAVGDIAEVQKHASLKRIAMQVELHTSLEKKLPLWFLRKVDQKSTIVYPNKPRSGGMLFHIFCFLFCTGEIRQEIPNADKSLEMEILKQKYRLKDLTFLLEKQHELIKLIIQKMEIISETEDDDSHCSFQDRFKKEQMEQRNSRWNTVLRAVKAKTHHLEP
T2 sequence (Q8BLA8 whole entry): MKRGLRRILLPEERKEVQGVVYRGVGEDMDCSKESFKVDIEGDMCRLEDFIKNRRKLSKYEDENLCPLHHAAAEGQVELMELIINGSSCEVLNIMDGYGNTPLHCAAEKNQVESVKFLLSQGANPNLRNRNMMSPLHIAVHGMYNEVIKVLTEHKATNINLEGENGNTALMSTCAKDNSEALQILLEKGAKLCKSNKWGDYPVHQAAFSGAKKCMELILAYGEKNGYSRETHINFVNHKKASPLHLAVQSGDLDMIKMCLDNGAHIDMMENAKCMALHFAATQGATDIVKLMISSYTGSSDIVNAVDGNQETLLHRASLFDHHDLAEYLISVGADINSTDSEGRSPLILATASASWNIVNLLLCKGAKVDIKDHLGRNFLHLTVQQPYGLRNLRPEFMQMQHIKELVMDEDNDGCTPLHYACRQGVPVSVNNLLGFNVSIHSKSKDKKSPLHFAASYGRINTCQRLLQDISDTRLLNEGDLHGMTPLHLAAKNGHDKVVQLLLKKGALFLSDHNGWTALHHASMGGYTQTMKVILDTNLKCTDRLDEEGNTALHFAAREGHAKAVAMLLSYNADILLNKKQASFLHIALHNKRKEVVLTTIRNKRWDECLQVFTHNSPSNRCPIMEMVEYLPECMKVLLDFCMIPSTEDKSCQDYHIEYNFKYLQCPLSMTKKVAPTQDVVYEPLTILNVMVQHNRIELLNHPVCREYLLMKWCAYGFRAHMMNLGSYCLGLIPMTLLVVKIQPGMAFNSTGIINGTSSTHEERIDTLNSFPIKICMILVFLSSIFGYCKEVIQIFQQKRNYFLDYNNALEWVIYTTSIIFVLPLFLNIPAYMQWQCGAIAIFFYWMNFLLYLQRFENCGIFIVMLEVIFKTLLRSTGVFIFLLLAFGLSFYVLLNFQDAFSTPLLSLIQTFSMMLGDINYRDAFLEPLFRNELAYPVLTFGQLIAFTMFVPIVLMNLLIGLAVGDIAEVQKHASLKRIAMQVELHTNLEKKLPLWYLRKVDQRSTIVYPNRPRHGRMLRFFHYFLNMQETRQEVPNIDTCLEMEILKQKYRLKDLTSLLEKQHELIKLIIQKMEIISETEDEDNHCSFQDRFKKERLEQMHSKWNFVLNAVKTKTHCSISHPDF

For `CC1=NCCS1` [2-MT, 2-methyl-2-thiazoline], the half-maximal effective concentration (EC50) worked out at 5.01 mM at hTRPA1 and 4.42 mM on mTRPA1.
